Experimental data as given in US8703815B2, “Small molecules that covalently modify transthyretin” (The Scripps Research Institute, priority 2009, dated 2014).
Where two headings read alike, the source gives them in different places.

Legend:
[1] = Quantum yield measurement in buffer; format: physicochemical
Method: The covalent TTR modifier A1 or A2 or the non-covalent TTR ligand B2 (15 μL of a 1.44 mM solution in DMSO, final concentration: 7.2 μM) was added to 3 mL of a solution of WT-TTR homotetramer (0.2 mg/mL, 3.6 μM) in 10 mM phosphate, 100 mM KCl and 1 mM EDTA (pH 7.0 phosphate buffer). The samples were vortexed, and incubated for 18 hours at 25° C. Quantum yields were measured by following the instructions at the web site: jobinyvon.com/usadivisions/Fluorescence/applications/quantumyieldstrad.pdf. Quinine bisulfate in 0.5 M H2SO4 was used as a reference for comparison (Φf=0.546). [Crosby et al., J. Phys. Chem. 1971, 75, 991-1024.]

[2] = Photoisomerization upon irradiation (312 nm, 10 seconds); format: physicochemical
Method: Although TTR can bind to small molecules composed of two aromatic rings when the tethered rings are up to 40° out of plane {based on TTR-stilbene crystal structures [Klabunde et al., Nat. Struct. Biol. 2000, 7, 312-321; Connelly et al., Curr. Opin. Struc. Biol. 2010, 20, 54-62; Johnson et al., J. Med. Chem. 2008, 51, 6348-6358; Choi et al., J. Am. Chem. Soc. 2010, 132, 1359-1370; Choi et al., Nat. Chem. Biol. 2010, 6, 133-139; Baures et al., Bioorg. Med. Chem. 1998, 6, 1389-1401; and Baures et al., Bioorg. Med. Chem. 1999, 7, 1339-1347]}, it would be energetically unfavorable to bind the excited singlet state in a conformation where the two aryl rings are oriented perpendicular to one another. Thus, we propose that the increase in fluorescence quantum yield of B2 from 0.09 in buffer to 0.55 in complex with TTR results from the resculpted excited singlet state energy surface of the stilbene in complex with TTR, such that the trans-conformer is the only state of relatively low potential energy [Gorner, H.; Kuhn, H. J. Adv, Photochem. 1995, 19, 1-117; Malkin et al., J. Phys. Chem. 1964, 68, 1153-1163; Saltiel, J. J. Am. Chem. Soc. 1967, 89, 1036-1037; Saltiel et al., J. Am. Chem. Soc. 1972, 94, 6445-6457; Saltiel et al., J. Am. Chem. Soc. 1979, 101, 2982-2996; and Saltiel et al., J. Am. Chem. Soc. 1968, 90, 4759-4760] inhibiting photoisomerization-based relaxation of B2. That B2 binding to TTR inhibits B2 photoisomerization is consistent with the observation that the irradiation of B2 in buffer (Life Technologies, TFX-35M, 312 nm) for 10 seconds affords 60% of the cis isomer, along with other minor photoreaction products, whereas irradiation of B2 bound to TTR yields only 20% cis isomer.
It appears that the increase in fluorescence quantum yield of A2 from 0.00 in buffer to 0.27 in the TTR-(stilbene)n≦2 conjugate is only partly explained by the mechanism proposed for B2 [Gorner, H.; Kuhn, H. J. Adv, Photochem. 1995, 19, 1-117; Malkin et al., J. Phys. Chem. 1964, 68, 1153-1163; Saltiel, J. J. Am. Chem. Soc. 1967, 89, 1036-1037; Saltiel et al., J. Am. Chem. Soc. […]

human fibroblasts = experiment: A2 treatment of human fibroblasts (no TTR); format: cell-based; settings: A2 10 μM, 30 minutes
Description: (§1) The confocal fluorescence observations are consistent with substantial evidence that the liver secretes the vast majority, if not all, of the TTR into the human bloodstream [Felding et al., Biochimica et Biophysica Acta 1982, 716, 446-9]. That TTR could be visualized in the secretory pathway addresses the sensitivity of A2-derived TTR fluorescent conjugate-based detection [Sekijima et al., Cell 2005, 121, 73-85].
(§2) Huh-7 cells or Gaucher's patient-derived fibroblasts (Coriell Cell Repositories, GM08760) were maintained in DMEM containing 10% FBS at 37° C. under 5% CO2. The cells were plated the day before compound treatment and imaging. Cells were washed twice with PBS and then treated with A2 (final concentration: 10 μM) for 30 minutes at 37° C. in a CO2 incubator. After two washes, cells were fixed at 25° C. for 15 minutes with 3.7% paraformaldehyde (w/v) in PBS and microscopic images were acquired as described above.

[3] = test system: Huh-7 human liver (hepatoma) cells; experiment: Labeling of endogenous TTR in Huh-7 cells; format: cell-based; settings: A2 10 μM, 30 minutes
Description: as §1, §2

WT-TTR [4] = biological target: T1, WT-TTR (Homo sapiens, UniProt P02766); experiment: Selectivity of A2 TTR conjugation in HeLa cell lysate (RP-HPLC, LC-MS); format: binding; settings: WT-TTR 5 μM, A2 15 μM, maximum of 50%
T1 construct: composed of 127-residue β-sheet-rich subunits; made in house; host or cells: E. coli
Method: The ability of A2 to form a chemoselective amide bond with the K15 residue of TTR in cell lysate was assessed by RP-HPLC and LC-MS analysis. […] Immunoisolation of TTR affords the expected mass resulting from conjugate formation (14,185 m/z [M+H] for benzoylation by A2).

V30M-TTR = biological target: T2, V30M-TTR (Homo sapiens, UniProt P02766, V50M); experiment: Acid-mediated V30M-TTR fibril formation assay (turbidity at 400 nm); format: biochemical; settings: pH 4.4, 72 hours, 37° C.
T2 construct: composed of 127-residue β-sheet-rich subunits; made in house
Method: Compounds (5 μL of 1.44 mM solution in DMSO) were added to 495 μL of TTR (7.2 μM, in 10 mM sodium phosphate, 100 mM KCl, 1 mM EDTA, pH 7.0). The mixtures were vortexed and incubated (maintained) for 18 hours at 25° C. […] The solutions were vortexed to evenly distribute any precipitate, and turbidity was measured at 400 nm using a Hewlett Packard model 8453 UV-VIS Spectrophotometer.

WT-TTR [5] = biological target: T1, WT-TTR; experiment: Acid-mediated WT-TTR fibril formation assay (turbidity at 400 nm); format: biochemical; settings: for IC50: % fibril formation after 72 hours, read-out: IC50 (apparent), inhibition of WT-TTR amyloidogenesis
Method: The mixtures were vortexed and incubated (maintained) for 18 hours at 25° C.

| fluorescence quantum yield in buffer [1] | photoisomerization upon irradiation in buffer (in words) [2] | % of TTR subunits modified in HeLa cell lysate (WT-TTR [4]) [%] | % Fibril Formation 7.2 μM (V30M-TTR) (V30M-TTR; compound 7.2 μM) [%] | % Fibril Formation […] (V30M-TTR) (V30M-TTR; compound […]) [%] | IC50 (WT-TTR [5]; WT-TTR 3.6 μM) [nM] | IC50 (WT-TTR [5]; WT-TTR […]) [nM] | % Fibril Formation 7.2 μM (WT-TTR) (WT-TTR [5]; WT-TTR […], compound 7.2 μM, pH 4.4, 72 hours, 37° C.) [%] | % Fibril Formation […] (WT-TTR) (WT-TTR [5]; WT-TTR […], compound […], pH 4.4, 72 hours, 37° C.) [%] | Compound | fluorescence in human fibroblasts (human fibroblasts) | fluorescence in Huh-7 cells [3] |
| --- | --- | --- | --- | --- | --- | --- | --- | --- | --- | --- | --- |
| 0.00 | does not readily form the cis isomer | 49 |  |  |  |  |  |  | Cc1cc(/C=C/c2cc(C(=O)Sc3ccc(F)cc3)cc(N(C)C)c2)cc(C)c1O [Compound A2, (E)-S-4-fluorophenyl 3-(dimethylamino)-5-(4-hydroxy-3,5-dimethylstyryl)-benzothioate] | no significant fluorescence | strong fluorescence |
|  |  |  | 3 | 34 | 1960 to 2260 | 2000 | 2 | 16 | Cc1cc(/C=C/c2cccc(C(=O)Sc3ccccc3)c2)cc(C)c1O [Compound 2, (E)-S-phenyl 3-(4-hydroxy-3,5-dimethylstyryl)benzothioate] |  |  |
